Molecular target: T1, human Flt-3 (Homo sapiens, UniProt P36888)
T1 construct: expresses the amino acid region amino acids 563-993 of the intra-cytoplasmic kinase domains of human Flt-3; made in house; host or cells: Sf9 insect cells (baculovirus, pFbacG01 donor vector)
T1 sequence (P36888 563-993): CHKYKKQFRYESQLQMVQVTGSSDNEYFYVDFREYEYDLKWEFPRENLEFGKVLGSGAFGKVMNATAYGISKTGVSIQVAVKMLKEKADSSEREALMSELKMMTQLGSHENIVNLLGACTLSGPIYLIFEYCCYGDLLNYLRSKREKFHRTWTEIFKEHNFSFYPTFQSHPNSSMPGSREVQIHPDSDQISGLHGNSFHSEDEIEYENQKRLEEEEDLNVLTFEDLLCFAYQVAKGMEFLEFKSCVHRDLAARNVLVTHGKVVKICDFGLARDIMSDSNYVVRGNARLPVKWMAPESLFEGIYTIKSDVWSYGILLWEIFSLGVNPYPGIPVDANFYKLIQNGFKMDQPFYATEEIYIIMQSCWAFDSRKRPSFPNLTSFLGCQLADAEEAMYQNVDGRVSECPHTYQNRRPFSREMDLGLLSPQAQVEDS
Assay: Tyrosine protein kinase assay with purified GST-Flt-3 (33P incorporation)
Format: biochemical
Conditions: at a 1.0 micromolar concentration
Experimental: ATP into appropriate substrates.
The coding sequences for the cytoplasmic domain of Flt-3 was amplified by PCR from human c-DNA libraries (Clontech). The amplified DNA fragments and the pFbacG01 vector were made compatible for ligation by digestion with BamH1 and Hind III. […] The production of the viruses, the expression of proteins in Sf9 cells and the purification of the GST-fused proteins were performed as following:
(Generation of Bac- to Bac GST-fusion vectors); pFbacG01, pFbacGST2T and pFbacGSTx3 Bac-to-Bac™ donor vectors were generated from pAcG1, pAcG2T and pAcG3X respectively, which facilitate the expression of GST-fusion proteins with the possibility of cleavage with thrombin (pFbacGT2) or factor Xa (pFbacGSTx3) while pFbacG01 expresses no proteolytic cleavage site. These were generated in house by isolation of the DNA fragment containing the gene for GST with the C-terminal protease and restriction sites by restriction enzyme digestion of the relevant PharMingen baculovirus donor vector with EcoRV and EcoRI. This EcoRV/EcoRI fragment was ligated into the pFastBac1 vector which had been restriction digested with BamHI, blunt-ended by Klenow reaction and subsequently digested with EcoRI to generate a blunt-ended/EcoRI vector. (Production of virus); Transfer vectors containing the kinase domains were transfected into the DH10Bac cell line (GIBCO) and plated on selective agar plates. Colonies without insertion of the fusion sequence into the viral genome (carried by the bacteria) are blue. Single white colonies were picked and viral DNA (bacmid) isolated from the bacteria by standard plasmid purification procedures. Sf9 cells or Sf21 cells were then transfected in 25 cm^2 flasks with the viral DNA using Cellfectin reagent. (Determination of small scale protein expression in Sf9 cells); Virus containing media was collected from the transfected cell culture and used for infection to increase its titer. Virus containing media obtained after two rounds of infection was used for large-scale protein expression. For large-scale protein expression 100 cm^2 round tissue culture plates were seeded with 5×10^7 cells/plate and infected with 1 mL of virus-containing media (approx. 5 MOIs). After 3 days the cells were scraped off the plate and centrifuged at 500 rpm for 5 min. Cell pellets from 10-20, 100 cm^2 plates, were resuspended in 50 mL of ice-cold lysis buffer (25 mMTris-HCl, pH7.5, 2 mMEDTA, 1% NP-40, 1 mM DTT, 1 mMP MSF). The cells were stirred on ice for 15 min and then centrifuged at 5000 rpms for 20 min.
ATP 0.1 μCi). […] ATP into appropriate substrates. […] Subsequently, 40 μL of the reaction mixture were transferred onto Immobilon-PVDF membrane (Millipore, Bedford, Mass., USA) previously soaked for 5 min with methanol, rinsed with water, then soaked for 5 min with 0.5% H3PO4 and mounted on vacuum manifold with disconnected vacuum source. After spotting all samples, vacuum was connected and each well rinsed with 200 μL 0.5% H3PO4. Membranes were removed and washed 4× on a shaker with 1.0% H3PO4, once with ethanol. Membranes were counted after drying at ambient temperature, mounting in Packard TopCount 96-well frame, and addition of 10 μL/well of Microscint™ (Packard). […] One unit of protein kinase activity is defined as 1 nmole of ^33P ATP transferred from [γ^33P] ATP to the substrate protein per minute per mg of protein at 37° C.

| Flt3 Inhibition (percent inhibition of Flt3 kinase activity) | Molecule |
| --- | --- |
| 88% | COC1C(=O)CC2OC1(C)n1c3ccccc3c3c4c(c5c6ccccc6n2c5c31)C(=O)NC4 [178276-05-6, (9S,10S,13R)-2,3,9,10,12,13-Hexahydro-10-methoxy-9-methyl-9,13-epoxy-1H,11H-diindolo[1,2,3-gh:3′,2′,1′-lm]pyrrolo[3,4-j][1,7]benzodiazonine-1,11-dione] |
| 41% | CO[C@@H]1[C@H](N(C)C(=O)c2ccccc2)C[C@H]2O[C@]1(C)n1c3ccccc3c3c4c(c5c6ccccc6n2c5c31)C(=O)NC4O (stereo partly drawn) [179237-49-1, N-(2,3,10,11,12,13-Hexahydro-3-hydroxy-10-methoxy-9-methyl-1-oxo-9,13-epoxy-1H,9H-diindolo[1,2,3-gh:3′,2′,1′-lm]pyrrolo[3,4-j][1,7]benzodiazonin-11-yl)-N-methyl-benzamide] |
| 77% | COC1C(=NOC(C)=O)CC2OC1(C)n1c3ccccc3c3c4c(c5c6ccccc6n2c5c31)C(=O)NC4 (stereo not drawn) [187457-78-9, [9S-(9a,10b,13a)]-2,3,9,10,12,13-Hexahydro-10-methoxy-9-methyl-9,13-epoxy-1H,11H-diindolo[1,2,3-gh:3′,2′,1′-lm]pyrrolo[3,4-j][1,7]benzodiazonine-1,11-dione, 11-(O-acetyloxime)] |
| 100% | CNC1CC2OC(C)(C1O)n1c3ccccc3c3c4c(c5c6ccccc6n2c5c31)C(=O)NC4 [239785-03-6, (9R,10S,11S,13S)-2,3,10,11,12,13-Hexahydro-10-hydroxy-9-methyl-11-(methylamino)-,9,13-epoxy-1H,9H-diindolo[1,2,3-gh:3′,2′,1′-lm]pyrrolo[3,4-j][1,7]benzodiazonin-1-one] |
| 64% | (2,3,10,11,12,13-hexahydro-10-methoxy-9-methyl-1-oxo-9,13-epoxy-1H,9H-diindolo[1,2,3-gh:3′,2′,1′-lm]pyrrolo[3,4-j][1,7]benzodiazonin-11-yl)methyl-carbamic acid, phenylmethyl ester [159404-67-8] |
| 98% | (9a,10b,11b,13a)-11-[(N-Acetyl-1-deoxymuramoyl)methylamino]-2,3,10,11,12,13-hexahydro-10-methoxy-9-methyl-9,13-epoxy-1H,9H-diindolo[1,2,3-gh:3′,2′,1′-lm]pyrrolo[3,4-j][1,7]benzodiazonin-1-one [149622-63-9] |
| 74% | (9a,10b,11b,13a)-11-[(N-Acetyl-4,6-di-O-acetyl-a-muramoyl)methylamino]-2,3,10,11,12,13-hexahydro-10-methoxy-9-methyl-9,13-epoxy-1H,9H-diindolo[1,2,3-gh:3′,2′,1′-lm]pyrrolo[3,4-j][1,7]benzodiazonin-1-one [149622-65-1] |
| 93% | (9a,10b,11b,13a)-11-[(N-Acetyl-6-O-acetyl-1-deoxymuramoyl)methylamino]-2,3,10,11,12,13-hexahydro-10-methoxy-9-methyl-, 11-[(N-acetyl-6-O-acetyl-1-deoxymuramoyl)methylamino]-2,3,10,11,12,13-hexahydro-10-methoxy-9-methyl-9,13-epoxy-1H,9H-diindolo[1,2,3-gh:3′,2′,1′-lm]pyrrolo[3,4-j][1,7]benzodiazonin-1-one [149622-68-4] |
| 97% | (9a,10b,11b,13a)-11-[(N-Acetyl-6-amino-1,6-dideoxymuramoyl)methylamino]-2,3,10,11,12,13-hexahydro-10-methoxy-9-methyl-9,13-epoxy-1H,9H-diindolo[1,2,3-gh:3′,2′,1′-lm]pyrrolo[3,4-j][1,7]benzodiazonin-1-one, monomethanesulfonate [150654-80-1] |
| 100% | (9a,10b,11b,13a)-11-[(N-Acetyl-6-amino-6-deoxy-a-isomuramoyl)methylamino]-2,3,10,11,12,13-hexahydro-10-methoxy-9-methyl-9,13-epoxy-1H,9H-diindolo[1,2,3-gh:3′,2′,1′-lm]pyrrolo[3,4-j][1,7]benzodiazonin-1-one [149622-56-0] |
| 96% | (9a,10b,11b,13a)-11-[(N-Acetyl-6-amino-6-deoxy-b-muramoyl)methylamino]-2,3,10,11,12,13-hexahydro-10-methoxy-9-methyl-9,13-epoxy-1H,9H-diindolo[1,2,3-gh:3′,2′,1′-lm]pyrrolo[3,4-j][1,7]benzodiazonin-1-one [149713-77-9] |
| 91% | (9a,10b,11b,13a)-11-[(N-Acetyl-a-muramoyl)methylamino]-2,3,10,11,12,13-hexahydro-10-methoxy-9-methyl-9,13-epoxy-1H,9H-diindolo[1,2,3-gh:3′,2′,1′-lm]pyrrolo[3,4-j][1,7]benzodiazonin-1-one [149622-53-7] |
| 85% | (9a,10b,11b,13a)-11-[(N-Acetyl-a-normuramoyl)methylamino]-2,3,10,11,12,13-hexahydro-10-methoxy-9-methyl-9,13-epoxy-1H,9H-diindolo[1,2,3-gh:3′,2′,1′-lm]pyrrolo[3,4-j][1,7]benzodiazonin-1-one [149622-55-9] |
| 76% | (9a,10b,11b,13a)-11-[[N-Acetyl-1-O-(phenylmethyl)-a-isomuramoyl]methylamino]-2,3,10,11,12,13-hexahydro-10-methoxy-9-methyl-9,13-epoxy-1H,9H-diindolo[1,2,3-gh:3′,2′,1′-lm]pyrrolo[3,4-j][1,7]benzodiazonin-1-one [149713-64-4] |
| 72% | (9a,10b,11b,13a)-11-[[N-Acetyl-1-O-(phenylmethyl)-a-muramoyl]methylamino]-2,3,10,11,12,13-hexahydro-10-methoxy-9-methyl-9,13-epoxy-1H,9H-diindolo[1,2,3-gh:3′,2′,1′-lm]pyrrolo[3,4-j][1,7]benzodiazonin-1-one [149622-39-9] |
| 67% | (9a,10b,11b,13a)-11-[[N-Acetyl-1-deoxy-6-O-[(4-methylphenyl)sulfonyl]muramoyl]methylamino]-2,3,10,11,12,13-hexahydro-10-methoxy-9-methyl-, 9,13-epoxy-1H,9H-diindolo[1,2,3-gh:3′,2′,1′-lm]pyrrolo[3,4-j][1,7]benzodiazonin-1-one [149622-70-8] |
| 77% | (9a,10b,11b,13a)-11-[[N-Acetyl-4,6-O-(1-methylethylidene)-1-O-(phenylmethyl)-a-isomuramoyl]methylamino]-2,3,10,11,12,13-hexahydro-9-methyl-10-methoxy-9,13-epoxy-1H,9H-diindolo[1,2,3-gh:3′,2′,1′-lm]pyrrolo[3,4-j][1,7]benzodiazonin-1-one [149622-59-3] |
| 70% | (9a,10b,11b,13a)-11-[[N-Acetyl-4,6-di-O-acetyl-1-O-(phenylmethyl)-a-muramoyl]methylamino]-2,3,10,11,12,13-hexahydro-10-methoxy-9-methyl-9,13-epoxy-1H,9H-diindolo[1,2,3-gh:3′,2′,1′-lm]pyrrolo[3,4-j][1,7]benzodiazonin-1-one [149622-61-7] |

Source: patent US8222244B2, “Staurosporine derivatives as inhibitors of FLT3 receptor tyrosine kinase activity” (Novartis AG, priority 2001, dated 2012)
